Compound | melting point
O=C1c2ccc(O)cc2OCC1Cc1cccnc1 (stereo unspecified) | 181 to 190 °C
O=C(O)c1cccc(NCc2cccnc2)c1C(=O)O | 231 to 233 °C
CC(C)CNC(=O)c1ccc(C2CC2c2ccc(Cl)cc2)cc1 (stereo unspecified) | 110 °C
CNC(=S)n1nc(Nc2ccccc2)nc1N | 196 to 198 °C
O=C(Nc1ccc(-n2nc(C(F)(F)F)cc2C(F)(F)F)cc1)Nc1ccc(Cl)c([N+](=O)[O-])c1 | 207 to 209 °C
CCC1(CC(=O)O)CCCc2c1n(C)c1ccccc21 (stereo unspecified) | 140 to 143 °C
Cc1occc1S(=O)(=O)C(C)(Cc1ccccc1)C(=O)NO (stereo unspecified) | 68 to 70 °C
Cc1ccc(Cc2cnc(NCCCCNc3ccc(Cl)cn3)[nH]c2=O)cn1 | 214 to 215 °C
CCOC(=O)c1cn(-c2ccc3ncccc3c2)cn1 | 90 to 94 °C
CCOC(=O)c1c[nH]c2cc(C)cc(O)c12 | 152 to 154 °C
O=C(O)c1ccc(-c2nc(-c3ccc(C(F)(F)F)cc3)cs2)cc1 | 164 to 165 °C
Oc1ccc([C@H]2CC[C@H](NCCNc3ccccc3)CC2)cc1 | 180 to 184 °C
CC(C)(C)OC(=O)N1CC(O)C(NS(=O)(=O)c2ccc(Oc3ccccc3)cc2)C1 (stereo unspecified) | 98 to 99 °C
O=C1NC(=O)c2c1c(-c1ccccc1Cl)cc1c2c2cc(O)c(OCCCN3CCOCC3)cc2n1CCO | 253 to 255 °C
COc1ccc(C(=C(CCBr)c2ccccc2)c2ccccc2)cc1 | 116 to 118 °C
CCN(CC)CCNC(=O)c1cc(Cl)c(N)cc1OC(C)C(C)=NO (stereo unspecified) | 113 to 115 °C
CC(C)n1nc(-c2cc(C(C)(C)C)c(O)c(C(C)(C)C)c2)c2cccnc21 | 147 °C
O=C(O)c1ccc(C(=O)/C=C/c2ccc(-c3cccs3)cc2F)cc1 | > 260 °C
O=S(=O)(c1ccccc1)n1c(SC(F)(F)F)nc(-c2ccc(F)cc2)c1-c1ccc(F)cc1 | 154 to 155 °C
CC(=O)OC1CCCc2cnc3ccccc3c21 (stereo unspecified) | 128 to 129 °C
NS(=O)(=O)c1cc(C(=O)OCC(=O)N[C@@H](CCO[N+](=O)[O-])CO[N+](=O)[O-])c(NCc2ccco2)cc1Cl | 93 to 95 °C
CCN(c1nc(C)cc(C(=O)N2CCN(C)CC2)n1)c1ccc(C(C)C)cc1Br | 81 to 82 °C
COc1cc2c(cc1O)C(C1(c3ccccc3Br)CCC1)N(C)CC2 (stereo unspecified) | 48 to 51 °C
O=C(O)CN(CCN(CC(=O)O)C(Cc1ccccc1)C(=O)O)CCN(CC(=O)O)C(Cc1ccccc1)C(=O)O (stereo unspecified) | 111 to 115 °C
COC(=O)C1Cc2c(cccc2-c2ccccc2)CN1 (stereo unspecified) | 149 to 150 °C
C[C@H]1CCCC(C)(C)[C@@H]1[C@H](O)c1ccc(C(F)(F)F)cc1 | 63 to 66 °C

Compound | melting point
NNc1ncccc1-c1ccccn1 | 64 to 65 °C
CCOc1c(OC)cc(C(=O)NN=C2CCCC2=Cc2ccccc2)cc1OC | 239 to 240 °C
CCn1cc(C(=O)O)c(=O)c2cc(F)c(N3CCC(N)C3)c(F)c21 (stereo unspecified) | 240 to 242 °C
O=C(NC1(C(=O)O)CCCCC1)OCc1ccccc1 | 152 to 154 °C
COC(=O)c1sc(Br)cc1N | 173 to 176 °C
CC(C)(C)N1CC(c2cc(Cl)c(N)c(Cl)c2)OC1=O (stereo unspecified) | 97 to 103 °C
CCCCNC(=O)Nc1ccc2c(c1Cl)C(c1ccccc1F)=NCC(=O)N2C | 196 to 198 °C
CCOC(=O)C(=CNc1nncs1)C(=O)OCC | 107 to 111 °C
CCNC(=O)c1cccc(NCC(=O)NCCc2ccc(OC)c(OC)c2)c1 | 99 to 101 °C
CN1CCN(C(=O)OC2C3=C(SCCS3)C(=O)N2c2ccc3c(Cl)ccnc3n2)CC1 (stereo unspecified) | 240 °C
Cc1nc2cccnc2n(-c2ccc(F)cc2)c1=O | 270 to 271 °C
COc1cc(OC)nc(NC(=O)NS(=O)(=O)c2ccccc2C2CO2)n1 (stereo unspecified) | 177 to 179 °C
CN1C(=S)N(c2ccc(Cl)c(Cl)c2)C(O)C1O (stereo unspecified) | 115 to 117 °C
NC1=C2C=NN=C2N(c2ccccc2)CN1Cc1ccccc1 | 167 to 168 °C
CCC(CC)N(O)C(=O)Nc1ccc(Cc2ccccc2)cc1 | 132 to 134 °C
CN1Cc2c(-c3noc(CNCc4ccccc4)n3)ncn2-c2ccccc2C1=O | 88 to 92 °C
COc1nc(C)c(C)nc1NC(=O)N1CCN(c2ccc(C(C)=O)cc2)CC1 | 166 to 168 °C
COc1ccc(N2C(=O)c3ccc(Cl)cc3C2CC(=O)N2CCN(C)CC2)cc1 (stereo unspecified) | 169 to 171 °C
CSC(c1ccccc1)S(=O)c1ccccc1 (stereo unspecified) | 104 to 105 °C
CCCc1c(OCc2cc(Br)cn3c(=O)c(CCC(=O)O)cnc23)ccc(C(C)=O)c1O | 239 to 242 °C
CCOc1cccc(C(O)c2ncccc2OC)c1 (stereo unspecified) | 104 to 106 °C
NC(=S)NN=Cc1ccc(N)cn1 | 205 to 207 °C
O=Cc1ccc(C(=O)NCC(F)(F)F)cc1 | 83 to 84 °C
CCN(CCCCc1coc2ccccc12)C[C@H]1COc2ccc3nc(C)ccc3c2O1 | 87 to 92 °C
CCOC(=O)NCc1cccc2c1C(=O)N(C1CCC(=O)NC1=O)C2=O (stereo unspecified) | 187 to 189 °C
CCc1cccc(C)c1NC(=O)C(C)Br (stereo unspecified) | 181 to 182 °C

Compound | melting point
COc1cccc(CNc2nccc(-c3cc(N4CCN(CCCN5CCOCC5)CC4)c4cc(OC)ccc4c3)n2)c1 | 65 to 73 °C
Cn1cc(C(F)(F)F)c(C(=O)O)c1Cl | 197 to 198 °C
O=C(Nc1cc2ncc(CN3CCCC3)cc2cc1F)c1ccc(-c2ccc(C(F)(F)F)cc2)cc1 | 209 to 212 °C
Fc1cc(F)c(-c2c(F)nc3nncnc3c2F)c(F)c1 | 160 to 161 °C
CCOC(=O)C1=C(C)NC(N)=C(C(=O)OC(C)C)C1c1ccccc1C#N (stereo unspecified) | 200 °C
N#Cc1cccnc1N1CCN(CCCCc2ccc(-c3csc(N)n3)cc2)CC1 | 155 to 162 °C
CCOC(=O)c1nc(-c2ccc(OCc3ccccc3)cc2)[nH]c1-c1ccc(C)cc1 | 168 to 170 °C
COc1cc(C2CCNCC2)ccc1Nc1ncc2ccc(-c3cccc(S(=O)(=O)NC(C)(C)C)c3)n2n1 | 201 to 202 °C
O=C(O)CCCc1ccc(NS(=O)(=O)c2ccccc2)cc1 | 128 to 130 °C
O=C(CCN1CCN(c2cccc(Cl)c2)CC1)N1CC2CC3CC(C2)CC1C3 | 110 to 112 °C
O=c1c2ccc(Cl)cc2[nH]c2c(O)nn(C3CCCc4sccc43)c(=O)c12 (racemic) | > 300 °C
CC(C)(C)N(CC(O)CONC(=O)NC1CCCCC1)C(=O)NC1CCCCC1 (stereo unspecified) | 151 to 152 °C
O=c1[nH]c2ncc(-c3ccc(-c4nn[nH]n4)cc3)nc2n1CC1CCCCC1 | > 400 °C
CCCOc1ccc(C(=O)OC)cc1-c1ccc(C#N)c(=O)[nH]1 | 201 to 203 °C
COc1cc2c(cc1OC)N(C(=O)c1ccc(-c3ccccc3C(F)(F)F)c(C)c1)Cc1ccc(C(=O)N3CCC(=O)CC3)n1C2 | 132 to 134 °C
COc1cccc(Oc2ccc([C@@H]3CCCN4CCS(=O)(=O)N=C34)cc2)c1 | 139 to 140 °C
COc1nc2c(c3ccccc13)c1cc(Cl)ccc1n2C | 179 to 180 °C
Cc1c(O)cnn(C(C)(C)C)c1=O | 236 to 239 °C
C=C(C)COc1cc(C)c(NC=O)c(C)c1CC(=C)C | 109 °C
Fc1ccc(-c2nc3ccc(N4CCC(N5CCCC5)CC4)nn3c2-c2ccnc3[nH]ccc23)cc1 | 261 to 264 °C
COc1ccc(C(=Cc2cc(OC)c(OC)cc2[N+](=O)[O-])C(=O)N2CCCC2C(=O)O)cc1 (stereo unspecified) | 120 to 122 °C
O=C(O)CCCOc1ccc(C23CC4CC(CC(C4)C2)C3)cc1 | 170 to 172 °C
CC(C)C(=O)n1cc(-c2ccc(Oc3ccccc3)cc2)c2c(N)ncnc21 | 160 to 161 °C
Cc1nc(-c2ccc(Cl)cc2)c(CC(=O)O)o1 | 215 to 216 °C
COc1ccc(Nc2ccc3cc(O)ccc3c2)cc1 | 152 to 153 °C
CNS(=O)(=O)c1ccc(F)cc1 | 67 to 70 °C

Compound | melting point
CSc1ccc(-c2cncn2-c2ccc(S(C)(=O)=O)cc2)cc1 | 153 to 155 °C
COc1ccc(CN(C(=O)C2CCCc3ccc(OC)cc32)c2ccc(OC)cc2)cc1 (stereo unspecified) | 89 to 90 °C
N#CCC(=O)Nc1ccc(-c2nncn2-c2ccc(F)cc2)cc1 | 223 to 225 °C
COc1cc(C(=O)NS(=O)(=O)c2ccccc2C)ccc1Cc1c(Cl)n(C)c2cc(Cl)c(CCNC(=O)N(C)C)cc12 | 236 to 238 °C
COc1ccc(CC(NC(=O)OCc2ccccc2)C(=O)C=[N+]=[N-])cc1 (stereo unspecified) | 88 to 90 °C
CNc1ccc(C#N)c(F)c1 | 110 to 112 °C
Cc1nc(-c2cccc(Cn3ccc4nc(C(C)C)n(Cc5ccc6ccc(-c7noc(C)n7)cc6c5)c4c3=O)c2)no1 | 108 to 109 °C
CC(=O)N1Cc2cccc3[nH]cc(c23)C1 | 205 to 206 °C
Cc1ccc2ccccc2c1C(=O)/C=C/c1ncn(C(c2ccccc2)(c2ccccc2)c2ccccc2)c1C | 222 to 224 °C
Cc1cc(OCc2coc(C=Cc3ccc(OC(F)(F)F)cc3)n2)ccc1COCCn1ccnn1 | 84 to 85 °C
O=c1[nH]c2ncc(-c3ccc(-c4nnc[nH]4)cc3)nc2n1CC1CCOCC1 | 342 to 345 °C
O=C(NCCO)c1csc(C(F)(F)F)n1 | 100 to 101 °C
COC1=C(OC)C(=O)C(Cl)=C(C)C1=O | 66 to 68 °C
CC(O)c1cc(NC(=O)OC(C)(C)C)ccc1NC(=O)OC(C)(C)C (stereo unspecified) | 189 °C
CCCCc1n[nH]c(CCCC)n1 | 50.5 to 51.5 °C
CNC(=O)N(C=O)c1cccc(C)c1 | 112 to 113 °C
Clc1ncnc2c1c(I)cn2C1CCOC1 (stereo unspecified) | 184 to 186 °C
CCc1noc(-c2cn(-c3cccc(Oc4ccc([N+](=O)[O-])cc4)c3)cn2)n1 | 145 to 146 °C
Cn1cc(C2=C(c3cn(C)c4ccc(N)cc34)C(=O)NC2=O)c2ccccc21 | 254 to 256 °C
CNc1nc(-c2cccc(NC(=O)c3ccc(Cl)c(Cl)c3)c2)c2cc(OC)c(OC)cc2n1 | 134 to 136 °C
O=C(NCc1cocn1)c1cc(-n2cnn(Cc3ccc(F)cc3)c2=O)n[nH]1 | 267 to 268 °C
C=CCOc1ccccc1OCCOS(C)(=O)=O | 61 to 63 °C
CC(=O)Nc1cc(Cl)c(Br)c(Cl)c1 | 224 °C

— a melting point compilation (Tetko et al.; mined from patent text by program, amines drawn as free bases though some values may be those of a salt)
